Test results as given in ChEMBL document CHEMBL1151685, “Structure-activity relationship of antibacterial chalcones” (2008).
Converted amounts (≈) assume the structure as drawn.

Key:
Format in all cases: functional
Bacillus cereus = assay: Antibacterial activity against Bacillus cereus ATCC 11778 after 24 hrs by microdilution broth method; details: ATCC 11778, 24 h
Escherichia coli = assay: Antibacterial activity against Escherichia coli ATCC 25922 after 24 hrs by microdilution broth method; details: ATCC 25922, 24 h
Pseudomonas aeruginosa = assay: Antibacterial activity against Pseudomonas aeruginosa ATCC 27853 after 24 hrs by microdilution broth method; details: ATCC 27853, 24 h
Staphylococcus aureus = assay: Antibacterial activity against Staphylococcus aureus ATCC 25923 after 24 hrs by microdilution broth method; details: ATCC 25923, 24 h

SMILES | MIC (Bacillus cereus) [µg/mL] | MIC (Escherichia coli) [µg/mL] | MIC (Pseudomonas aeruginosa) [µg/mL] | MIC (Staphylococcus aureus) [µg/mL] | MBC (Bacillus cereus) [µg/mL] | MBC (Escherichia coli) [µg/mL] | MBC (Pseudomonas aeruginosa) [µg/mL] | MBC (Staphylococcus aureus) [µg/mL]
COc1cc(C(=O)CCc2ccccc2)c(OC)c(CC=C(C)C)c1OC | 2000 (≈ 5.43 mM) | 2000 (≈ 5.43 mM) | 2000 (≈ 5.43 mM) | 2000 (≈ 5.43 mM) | 2000 (≈ 5.43 mM) | 2000 (≈ 5.43 mM) | 2000 (≈ 5.43 mM) | > 2000
COc1ccc(/C=C/C(=O)c2ccc(OC)cc2)cc1 [4,4'-DIMETHOXYCHALCONE] | > 2000 | > 2000 | 2000 (≈ 7.45 mM) | > 2000 | > 2000 | > 2000 | 2000 (≈ 7.45 mM) | > 2000
CC(C)=CCOc1ccc(C(=O)/C=C/c2ccccc2)c(O)c1 [CORDOIN] | 2000 (≈ 6.49 mM) | 2000 (≈ 6.49 mM) | 2000 (≈ 6.49 mM) | 2000 (≈ 6.49 mM) | 2000 (≈ 6.49 mM) | > 2000 | 2000 (≈ 6.49 mM) | > 2000
COc1ccc(C(=O)/C=C/c2ccccc2)c(O)c1CC=C(C)C [DERRICIN] | 2000 (≈ 6.2 mM) | 2000 (≈ 6.2 mM) | 2000 (≈ 6.2 mM) | 2000 (≈ 6.2 mM) | 2000 (≈ 6.2 mM) | 2000 (≈ 6.2 mM) | 2000 (≈ 6.2 mM) | > 2000
CC(C)=CCc1c(O)ccc(C(=O)/C=C/c2ccccc2)c1O [ISOCORDOIN] | 2000 (≈ 6.49 mM) | 2000 (≈ 6.49 mM) | 2000 (≈ 6.49 mM) | 2000 (≈ 6.49 mM) | 2000 (≈ 6.49 mM) | 2000 (≈ 6.49 mM) | 1000 (≈ 3.24 mM) | 2000 (≈ 6.49 mM)
O=C(/C=C/c1ccc(O)cc1)c1ccc(O)cc1O [ISOLIQUIRITIGENIN] | 62.5 (≈ 0.244 mM) | 2000 (≈ 7.8 mM) | 2000 (≈ 7.8 mM) | 62.5 (≈ 0.244 mM) | 62.5 (≈ 0.244 mM) | 2000 (≈ 7.8 mM) | 2000 (≈ 7.8 mM) | 62.5 (≈ 0.244 mM)
CC1(C)C=Cc2c(ccc(C(=O)/C=C/c3ccccc3)c2O)O1 [LONCHOCARPIN] | 2000 (≈ 6.53 mM) | 1000 (≈ 3.26 mM) | 2000 (≈ 6.53 mM) | 2000 (≈ 6.53 mM) | 2000 (≈ 6.53 mM) | 1000 (≈ 3.26 mM) | 2000 (≈ 6.53 mM) | 2000 (≈ 6.53 mM)
O=C(CCc1ccc(O)cc1)c1c(O)cc(O)cc1O [PHLORETIN] | 250 (≈ 0.912 mM) | > 2000 | 2000 (≈ 7.29 mM) | 250 (≈ 0.912 mM) | 250 (≈ 0.912 mM) | 1000 (≈ 3.65 mM) | 2000 (≈ 7.29 mM) | 250 (≈ 0.912 mM)
CN(C)[C@@H]1C(O)=C(C(N)=O)C(=O)[C@@]2(O)C(O)=C3C(=O)c4c(O)cccc4[C@@](C)(O)[C@H]3C[C@@H]12 [TETRACYCLINE] | 0.25 (≈ 0.000563 mM) | 2 (≈ 0.0045 mM) | 32 (≈ 0.072 mM) | 1 (≈ 0.00225 mM) | – | – | – | –

Further compounds by falling MIC (Bacillus cereus), results first:

MIC (Bacillus cereus) [µg/mL] | MIC (Escherichia coli) [µg/mL] | MIC (Pseudomonas aeruginosa) [µg/mL] | MIC (Staphylococcus aureus) [µg/mL] | SMILES | MBC (Bacillus cereus) [µg/mL] | MBC (Escherichia coli) [µg/mL] | MBC (Pseudomonas aeruginosa) [µg/mL] | MBC (Staphylococcus aureus) [µg/mL]
1000 (≈ 3.52 mM) | 1000 (≈ 3.52 mM) | 1000 (≈ 3.52 mM) | 1000 (≈ 3.52 mM) | COc1ccc(C(=O)/C=C/c2ccccc2O)cc1OC | 1000 (≈ 3.52 mM) | 2000 (≈ 7.03 mM) | > 2000 | 2000 (≈ 7.03 mM)
1000 (≈ 3.73 mM) | 2000 (≈ 7.45 mM) | 1000 (≈ 3.73 mM) | 1000 (≈ 3.73 mM) | COc1ccc(C(=O)/C=C/c2ccccc2)cc1OC [3',4'-DIMETHOXYCHALCONE] | 1000 (≈ 3.73 mM) | 1000 (≈ 3.73 mM) | 2000 (≈ 7.45 mM) | 2000 (≈ 7.45 mM)
1000 (≈ 3.1 mM) | 2000 (≈ 6.2 mM) | 2000 (≈ 6.2 mM) | 1000 (≈ 3.1 mM) | CC1(C)C=Cc2cc(C(=O)/C=C/c3ccc(O)cc3)c(O)cc2O1 [4-HYDROXYISOLONCHOCARPIN] | > 2000 | > 2000 | > 2000 | > 2000
1000 (≈ 3.26 mM) | 2000 (≈ 6.53 mM) | 2000 (≈ 6.53 mM) | 2000 (≈ 6.53 mM) | CC1(C)C=Cc2cc(C(=O)/C=C/c3ccccc3)c(O)cc2O1 [ISOLONCHOCARPIN] | > 2000 | > 2000 | > 2000 | > 2000
250 (≈ 0.761 mM) | 2000 (≈ 6.09 mM) | 2000 (≈ 6.09 mM) | 1000 (≈ 3.05 mM) | COc1ccccc1/C=C/C(=O)c1cc(OC)c(OC)cc1OC | 250 (≈ 0.761 mM) | 2000 (≈ 6.09 mM) | 2000 (≈ 6.09 mM) | 1000 (≈ 3.05 mM)
31.2 (≈ 0.0962 mM) | 1000 (≈ 3.08 mM) | 1000 (≈ 3.08 mM) | 31.2 (≈ 0.0962 mM) | CC(C)=CCc1c(O)ccc(C(=O)/C=C/c2ccc(O)cc2)c1O [ISOBAVACHALCONE] | 31.2 (≈ 0.0962 mM) | 1000 (≈ 3.08 mM) | 2000 (≈ 6.17 mM) | 31.2 (≈ 0.0962 mM)
15.6 (≈ 0.0339 mM) | 1000 (≈ 2.17 mM) | 1000 (≈ 2.17 mM) | 31.2 (≈ 0.0677 mM) | CC(C)=CCC/C(C)=C\Cc1c(O)ccc(C(=O)/C=C/c2ccc(O)c(CC=C(C)C)c2)c1O | 15.6 (≈ 0.0339 mM) | 2000 (≈ 4.34 mM) | 2000 (≈ 4.34 mM) | 31.2 (≈ 0.0677 mM)
